Among the data in ChEMBL document CHEMBL4613211, “Aurone: A biologically attractive scaffold as anticancer agent” (Eur J Med Chem, 2019) are inhibition of growth values, retold here.

In the first assay the test system is ACHN. Kind of assay: Growth inhibition of human ACHN cells at 10 uM after 48 hrs by sulforhodamine B assay relative to control. The settings on record: read-out: GI. The class given is functional. (In SRB staining, fixed cells bind dye roughly in proportion to their protein.)
For `COc1cc(/C=C2\Oc3cc4occc4c(OC)c3C2=O)ccc1OCC(=O)Nc1ccccc1`, the inhibition of growth at 10 µM fell in the range of 67.1 to 79.6%.

The subject of a further assay is SF-295. Nature of the assay: Growth inhibition of human SF295 cells at 10 uM after 48 hrs by sulforhodamine B assay relative to control. The assay is classed as functional. The note with it: SF-295, 48 h, read-out: GI.
`COc1cc(/C=C2\Oc3cc4occc4c(OC)c3C2=O)ccc1OCC(=O)Nc1ccccc1`: the inhibition of growth at 10 µM was in the range of 67.1 to 79.6%.

The subject of another assay is HL-60(TB). Nature of the assay: Growth inhibition of human HL-60(TB) cells at 10 uM after 48 hrs by sulforhodamine B assay relative to control. The assay is classed as functional. The settings on record: HL-60, 48 h, read-out: GI.
As to `COc1cc(/C=C2\Oc3cc4occc4c(OC)c3C2=O)ccc1OCC(=O)Nc1ccccc1`, the inhibition of growth at 10 µM lay in the range of 67.1 to 79.6%.

The test system of the next assay is IGROV-1. Kind of assay: Growth inhibition of human IGROV1 cells at 10 uM after 48 hrs by sulforhodamine B assay relative to control. The class given is functional. The note with it: IGROV-1, 48 h, read-out: GI.
As for `COc1cc(/C=C2\Oc3cc4occc4c(OC)c3C2=O)ccc1OCC(=O)Nc1ccccc1`, the inhibition of growth at 10 µM lay in the range of 67.1 to 79.6%.

The next assay has as its system HOP-92. Nature of the assay: Growth inhibition of human HOP92 cells at 10 uM after 48 hrs by sulforhodamine B assay relative to control. The assay is classed as functional. The settings on record: HOP-92, 48 h, read-out: GI.
For `COc1cc(/C=C2\Oc3cc4occc4c(OC)c3C2=O)ccc1OCC(=O)Nc1ccccc1`, the inhibition of growth at 10 µM was 67.1 to 79.6%.

A further assay has as its system SK-OV-3. Nature of the assay: Growth inhibition of human SKOV3 cells at 10 uM after 48 hrs by sulforhodamine B assay relative to control. The assay is classed as functional. The settings on record: SK-OV-3, 48 h, read-out: GI.
As to `COc1cc(/C=C2\Oc3cc4occc4c(OC)c3C2=O)ccc1OCC(=O)Nc1ccccc1`, the inhibition of growth at 10 µM fell in the range of 67.1 to 79.6%.

For a further assay, the system named is M14. Kind of assay: Growth inhibition of human M14 cells at 10 uM after 48 hrs by sulforhodamine B assay relative to control. The assay is classed as functional. The note with it: M14, 48 h, read-out: GI.
For `COc1cc(/C=C2\Oc3cc4occc4c(OC)c3C2=O)ccc1OCC(=O)Nc1ccccc1`, the inhibition of growth at 10 µM was 67.1 to 79.6%.

The test system of another assay is CCRF-CEM. Kind of assay: Growth inhibition of human CCRF-CEM cells at 10 uM after 48 hrs by sulforhodamine B assay relative to control. The note with it: read-out: GI. The class given is functional.
Regarding `COc1cc(/C=C2\Oc3cc4occc4c(OC)c3C2=O)ccc1OCC(=O)Nc1ccccc1`, the inhibition of growth at 10 µM lay in the range of 67.1 to 79.6%.

Another assay relates to MDA-MB-231. Kind of assay: Growth inhibition of human MDA-MB-231 cells at 10 uM after 48 hrs by sulforhodamine B assay relative to control. The class given is functional. The settings on record: MDA-MB-231, 48 h, read-out: GI.
Regarding `COc1cc(/C=C2\Oc3cc4occc4c(OC)c3C2=O)ccc1OCC(=O)Nc1ccccc1`, the inhibition of growth at 10 µM lay in the range of 67.1 to 79.6%.

The test system of another assay is OVCAR-3. Kind of assay: Growth inhibition of human OVCAR3 cells at 10 uM after 48 hrs by sulforhodamine B assay relative to control. The note with it: OVCAR-3, 48 h, read-out: GI. The class given is functional.
On to `COc1cc(/C=C2\Oc3cc4occc4c(OC)c3C2=O)ccc1OCC(=O)Nc1ccccc1`, for which the inhibition of growth at 10 µM lay in the range of 67.1 to 79.6%.

In the next assay the test system is 786-0. Kind of assay: Growth inhibition of human 786-0 cells at 10 uM after 48 hrs by sulforhodamine B assay relative to control. The assay is classed as functional. The settings on record: 786-0, 48 h, read-out: GI.
For the compound `COc1cc(/C=C2\Oc3cc4occc4c(OC)c3C2=O)ccc1OCC(=O)Nc1ccccc1`, the inhibition of growth at 10 µM was 67.1 to 79.6%.

Another assay concerns SF-268. Kind of assay: Growth inhibition of human SF268 cells at 10 uM after 48 hrs by sulforhodamine B assay relative to control. The assay is classed as functional. The note with it: SF-268, 48 h, read-out: GI.
As to `COc1cc(/C=C2\Oc3cc4occc4c(OC)c3C2=O)ccc1OCC(=O)Nc1ccccc1`, the inhibition of growth at 10 µM lay within 67.1 to 79.6%.

Another assay concerns TK-10. Kind of assay: Growth inhibition of human TK10 cells at 10 uM after 48 hrs by sulforhodamine B assay relative to control. The class given is functional. The note with it: TK-10, 48 h, read-out: GI.
In the case of `COc1cc(/C=C2\Oc3cc4occc4c(OC)c3C2=O)ccc1OCC(=O)Nc1ccccc1`, the inhibition of growth at 10 µM is 67.1 to 79.6%.

A further assay has as its system Hs-578T. Kind of assay: Growth inhibition of human Hs 578T cells at 10 uM after 48 hrs by sulforhodamine B assay relative to control. The class given is functional. The note with it: read-out: GI.
Take `COc1cc(/C=C2\Oc3cc4occc4c(OC)c3C2=O)ccc1OCC(=O)Nc1ccccc1`: the inhibition of growth at 10 µM was in the range of 67.1 to 79.6%.

A further assay deals with MDA-MB-468. Nature of the assay: Growth inhibition of human MDA-MB-468 cells at 10 uM after 48 hrs by sulforhodamine B assay relative to control. The assay is classed as functional. The note with it: MDA-MB-468, 48 h, read-out: GI.
For the compound `COc1cc(/C=C2\Oc3cc4occc4c(OC)c3C2=O)ccc1OCC(=O)Nc1ccccc1`, the inhibition of growth at 10 µM lay within 67.1 to 79.6%.

The test system of the next assay is Malme-3M. Nature of the assay: Growth inhibition of human MALME-3M cells at 10 uM after 48 hrs by sulforhodamine B assay relative to control. The assay is classed as functional. The settings on record: read-out: GI.
Take `COc1cc(/C=C2\Oc3cc4occc4c(OC)c3C2=O)ccc1OCC(=O)Nc1ccccc1`: the inhibition of growth at 10 µM was 67.1 to 79.6%.

The subject of a further assay is OVCAR-8. Kind of assay: Growth inhibition of human OVCAR8 cells at 10 uM after 48 hrs by sulforhodamine B assay relative to control. The settings on record: OVCAR-8, 48 h, read-out: GI. The assay is classed as functional.
In the case of `COc1cc(/C=C2\Oc3cc4occc4c(OC)c3C2=O)ccc1OCC(=O)Nc1ccccc1`, the inhibition of growth at 10 µM was in the range of 67.1 to 79.6%.

A further assay has as its system A498. Nature of the assay: Growth inhibition of human A498 cells at 10 uM after 48 hrs by sulforhodamine B assay relative to control. The settings on record: A498, 48 h, read-out: GI. The assay is classed as functional.
Regarding `COc1cc(/C=C2\Oc3cc4occc4c(OC)c3C2=O)ccc1OCC(=O)Nc1ccccc1`, the inhibition of growth at 10 µM is 67.1 to 79.6%.
